Consider five compounds from patent US7332476B2, “Pyridyl substituted ketolide antibiotics” (Novartis AG, priority 2003, dated 2008).

Assay in all cases: MIC, broth microdilution (NCCLS)
Background: Dilution methods test growth across graded concentrations, often in twofold steps.

Experiment [1] has as its system Enterococcus faecalis Enfa_29212. The class given is cell-based. To be noted: in µg/mL (unit assumed); for MIC: Table 7, Strain ID D (Table 6): E. faecalis Enfa_29212. The gist of the method: (§1)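 Broth microdilution per NCCLS in cation-adjusted Mueller-Hinton broth, with 2-5% lysed horse blood added for S. pneumoniae. Inoculum 3×10^5–7×10^5 CFU/ml, 2-fold drug dilutions, 18-24 h at 35° C; S. pneumoniae under 5-10% CO2, others ambient air. MIC = lowest concentration preventing visible growth.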

Experiment [2] has as its system Haemophilus influenzae Hain_49247. It is filed as cell-based. The following applies: Table 7, Strain ID M (Table 6): H. influenzae Hain_49247; unit assumed.
Experiment [3] concerns Staphylococcus aureus Stau_29213. It is filed as cell-based. To be noted: Table 7, Strain ID A (Table 6): S. aureus Stau_29213; in µg/mL (unit assumed). The gist of the method:
as §1

Experiment [4] relates to Staphylococcus epidermidis Step_14990. The class given is cell-based. To be noted: in µg/mL (unit assumed); for MIC: Table 7, Strain ID B (Table 6): S. epidermidis Step_14990. The method, boiled down: as §1
Experiment [5] relates to Staphylococcus epidermidis Step_f50654. The class given is cell-based. To be noted: Table 7, Strain ID C (Table 6): S. epidermidis Step_f50654; in µg/mL (unit assumed). The method, boiled down: as §1
The subject of experiment [6] is Streptococcus pneumoniae Stpn_Erm S 4297. The class given is cell-based. The following applies: Table 7, Strain ID J (Table 6): S. pneumoniae Stpn_Erm S 4297. The gist of the method: as §1
Experiment [7] relates to Streptococcus pneumoniae Stpn_Mef S 3427. It is filed as cell-based. To be noted: Table 7, Strain ID L (Table 6): S. pneumoniae Stpn_Mef S 3427; in µg/mL (unit assumed). The gist of the method:
as §1

In experiment [8] the test system is Streptococcus pyogenes Stpy_8668. The class given is cell-based. Also on record: MIC, strain ID G: unit not given beside the values. To be noted: for MIC: Table 7, Strain ID E (Table 6): S. pyogenes Stpy_8668. The gist of the method: as §1
Experiment [9] concerns Streptococcus pneumoniae Stpn_49619. It is filed as cell-based. Also on record: MIC, strain ID M: unit not given beside the values. To be noted: for MIC: Table 7, Strain ID F (Table 6): S. pneumoniae Stpn_49619. The gist of the method: as §1
Experiment [10] has as its system Streptococcus pneumoniae Stpn_297-749. The class given is cell-based. The following applies: for MIC: Table 7, Strain ID G (Table 6): S. pneumoniae Stpn_297-749. Also on record: MIC, strain ID N: unit not given here. The method, boiled down:
as §1

The test system of experiment [11] is Streptococcus pneumoniae Stpn_280-962. The class given is cell-based. Also on record: MIC, strain ID O: unit not given beside the values. To be noted: for MIC: Table 7, Strain ID H (Table 6): S. pneumoniae Stpn_280-962. The method, boiled down: as §1
Experiment [12] relates to S. pneumoniae Stpn_Erm 6849. It is filed as cell-based, Streptococcus pneumoniae. To be noted: for MIC: Table 7, Strain ID I (Table 6): S. pneumoniae Stpn_Erm 6849, unit assumed. The gist of the method: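 Lowest drug concentration giving no visible growth after 18-24 hours at 35° C. under 5-10% CO2 was taken as MIC. Twofold serial dilutions in CAMHB plus 2-5% lysed horse blood, final inoculum 3×10^5–7×10^5 CFU/ml, per NCCLS microdilution.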

Experiment [13] deals with Streptococcus pneumoniae Stpn_Mef 5654. It is filed as cell-based. The following applies: Table 7, Strain ID K (Table 6): S. pneumoniae Stpn_Mef 5654; in µg/mL (unit assumed). The gist of the method:
as §1

Experiment [14] concerns Staphylococcus aureus Stau_33591. It is filed as cell-based. The following applies: strain ID B; broth microdilution; unit assumed. As to the method:
Strains. The bacterial isolates listed in Table 8 were cultivated from −70° C. frozen stocks by two consecutive overnight passages (P1, P2) at 35° C. on 5% blood agar (Remel, Lenexa, Kans.). Chocolate agar (Remel) is used for Haemophilus influenzae. H. influenzae and Streptococcus pneumoniae are incubated in 5-10% CO2
Drug Stock Preparation. To determine the amount of solvent to be used to give the desired final concentration, the formula “weight obtained in mg/final concentration in mg/ml” will be used. It will give the amount of solvent in ml needed to be added to give the desired concentration. For example, if 2.5 mg/ml is the desired concentration and the weight of compound is 13.7 mg, then the amount of solvent to be added is […]. Methanol is used as the solvent to dissolve the test compounds. Further dilution of stock is done in sterile, deionized water. Drug stocks are kept frozen at −70° C., protected from light.
Susceptibility Testing. MICs are determined by the broth microdilution method in accordance with the NCCLS guidelines. In brief, organism suspensions are adjusted to a 0.5 McFarland standard to yield a final inoculum between 3×10^5 and 7×10^5 CFU/ml. Drug dilutions and inocula are made in sterile, cation adjusted Mueller-Hinton Broth (CAMHB) (Remel) for all but S. pneumoniae [CAMHB with 2-5% lysed horse blood (Remel)] and H. influenzae [Haemophilus Test Medium (Remel)]. An inoculum volume of 100 μl is added to wells containing 100 μl of broth with 2-fold serial dilutions of drug. All inoculated microdilution trays are incubated in ambient air at 35° C. for 18-24 hours, except for S. pneumoniae, and H. influenzae (both at 5-10% CO2).
Following appropriate incubation, the MIC is determined and the MIC is defined as the lowest concentration of the drug that prevented visible growth. […] Antibacterial activity of representative compounds of the invention were compared against telitromycin.

SMILES strings stand for the structures. ≈ marks a conversion by molar mass, not a printed value.

For the compound `CC[C@H]1OC(=O)[C@@](C)(F)C(=O)[C@H](C)[C@@H](OC2O[C@H](C)C[C@H](N(C)C)[C@H]2O)[C@@](C)(OC)C[C@@H](C)C(=O)[C@H](C)[C@H]2N(CCCC(C)(C)n3cnc4ncccc43)C(=O)O[C@]12CC` (stereo partly drawn) [Example 39, (3aS,4R,7S,9R,10R,11S,13R,15R,15aR)-3a,4-diethyl-7-fluoro-1-[4-(1H-imidazo[4,5-b]pyridin-1-yl)-4-methylpentyl]-11-methoxy-7,9,11,13,15-pentamethyl-2,6,8,14-tetraoxotetradecahydro-2H-oxacyclotetradecino[4,3-d][1,3]oxazol-10-yl-3,4,6-trideoxy-3-(dimethylamino)-D-xylo-hexopyranoside], the MIC in [1] was 0.1; in experiment [2], 3.13 µg/mL (≈ 3.7 µM); in experiment [3] it was 0.2; in experiment [4], 0.1; in experiment [5] it was 0.4; in experiment [6] it was “=0.05”. The MIC was 0.2 in [7]; “=0.05” in experiment [8]; “=0.05” in experiment [9]; “=0.05” in experiment [10]; “=0.05” in experiment [11]; 0.1 µg/mL (≈ 0.118 µM) in experiment [12]. The compound further gave an MIC in [13] of 0.78.
For the compound `CC[C@H]1OC(=O)[C@@](C)(F)C(=O)[C@H](C)[C@@H](OC2O[C@H](C)C[C@H](N(C)C)[C@H]2O)[C@@](C)(OC)C[C@@H](C)C(=O)[C@H](C)[C@H]2N(CCCC(C)(C)n3cnc4cccnc43)C(=O)O[C@]12CC` (stereo partly drawn) [Example 40, (3aS,4R,7S,9R,10R,11S,13R,15R,15aR)-3a,4-diethyl-7-fluoro-1-[4-(3H-imidazo[4,5-b]pyridin-3-yl)-4-methylpentyl]-11-methoxy-7,9,11,13,15-pentamethyl-2,6,8,14-tetraoxotetradecahydro-2H-oxacyclotetradecino[4,3-d][1,3]oxazol-10-yl-3,4,6-trideoxy-3-(dimethylamino)-D-xylo-hexopyranoside], the MIC in experiment [1] is 0.1; in experiment [2], 6.25 µg/mL (≈ 7.39 µM); in experiment [3], 0.2; in experiment [4], 0.2; in [5] it was 0.2; in experiment [6], “=0.05”. In addition, the MIC in [7] is 0.2; in experiment [8], “=0.05”; in experiment [9] it was “=0.05”; in experiment [10] it was “=0.05”; in experiment [11] it was “=0.05”; in [12] it was 0.2 µg/mL (≈ 0.236 µM). This compound also returned an MIC in experiment [13] of 0.78.
For `C=C[C@]12OC(=O)N(CCCCn3cnc(-c4cccnc4)c3)[C@@H]1[C@@H](C)C(=O)[C@H](C)C[C@](C)(OC)[C@H](OC1O[C@H](C)C[C@H](N(C)C)[C@H]1O)[C@@H](C)C(=O)[C@@H](C)C(=O)O[C@@H]2CC` (stereo partly drawn) [Example 48, (3aS,4R,7R,9R,10R,11R,13R,15R,15aR)-4-ETHYL-11-METHOXY-7,9,11,13,15-PENTAMETHYL-2,6,8,14-TETRAOXO-1-[4-(4-PYRIDIN-3-YL-1H-IMIDAZOL-1-YL)BUTYL]-3a-VINYLTETRADECAHYDRO-1H-OXACYCLOTETRADECINO[4,3-D][1,3]OXAZOL-10-YL-3,4,6-TRIDEOXY-3-(DIMETHYLAMINO)-D-XYLO-HEXOPYRANOSIDE], the MIC in [1] was 0.1; in [2], 3.13 µg/mL (≈ 3.8 µM); in [3], 0.2; in experiment [4] it was 0.2; in experiment [5] it was 0.2; in experiment [6] it was “=0.05”. In addition, the MIC in experiment [7] is 0.1; in experiment [8], “=0.05”; in experiment [9], “=0.05”; in experiment [10], “=0.05”; in experiment [11], “=0.05”; in experiment [12], 0.4 µg/mL (≈ 0.485 µM). In addition, the MIC in experiment [13] is 0.78.
`C/C=C\[C@]12OC(=O)N(CCCCn3cnc(-c4cccnc4)c3)[C@@H]1[C@@H](C)C(=O)[C@H](C)C[C@](C)(OC)[C@H](OC1O[C@H](C)C[C@H](N(C)C)[C@H]1O)[C@@H](C)C(=O)[C@](C)(F)C(=O)O[C@@H]2CC` (stereo partly drawn) [Example 66, (3aS,4R,7S,9R,10R,11S,13R,15R,15aR)-4-ethyl-7-fluoro-11-methoxy-7,9,11,13,15-pentamethyl-2,6,8,14-tetraoxo-3a-[(1Z)-prop-1-enyl]-1-[4-(4-pyridin-3-yl-1H-imidazol-1-yl)butyl]tetradecahydro-1H-oxacyclotetradecino[4,3-d][1,3]oxazol-10-yl-3,4,6-trideoxy-3-(dimethylamino)-D-xylo-hexopyranoside]: the MIC entry in experiment [1] is “.01”; in [2], 6.25 µg/mL (≈ 7.3 µM); in experiment [3] it was 0.2; in experiment [4], 0.2; in experiment [5], 0.2; in experiment [6] (unit assumed) it was 0.1 µg/mL (≈ 0.117 µM). Also, the MIC in experiment [7] is 0.1; in experiment [8], “=0.05”; in experiment [9], “=0.05”; in [10] it was “=0.05”; in experiment [11], “=0.05”; in experiment [12], 0.2 µg/mL (≈ 0.234 µM). Further, the MIC in experiment [13] turned out to be 0.4.
Take `C#C[C@]12OC(=O)N(CCCCn3cnc(-c4ccc(C)nc4)c3)[C@@H]1[C@@H](C)C(=O)[C@H](C)C[C@](C)(OC)[C@H](OC1O[C@H](C)C[C@H](N(C)C)[C@H]1O)[C@@H](C)C(=O)[C@@H](C)C(=O)O[C@@H]2CC` (stereo partly drawn) [XXXIII]: the “MIC, strain ID E” value in [1] (strain ID E, broth microdilution) came to 0.1. Further, the “MIC, strain ID C” value in experiment [4] (strain ID C, broth microdilution) was 0.2. In addition, the MIC, strain ID B in experiment [14] was above 50 µg/mL. Also, the “MIC, strain ID G” value in experiment [8] (strain ID G, broth microdilution) is given as “=0.05”. Also, the “MIC, strain ID M” value in experiment [9] (strain ID M, broth microdilution) is recorded as “=0.05”. Further, in experiment [10] (strain ID N, broth microdilution), the “MIC, strain ID N” value is “=0.05”. For the same compound, the “MIC, strain ID O” value in experiment [11] (strain ID O, broth microdilution) is listed as “=0.05”. In addition, in experiment [12] (strain ID P, broth microdilution, in µg/mL (unit assumed)), the “MIC, strain ID P” value came out at 1.56.
